ChEMBL document CHEMBL1148156, “Chemical constituents of Millettia taiwaniana: structure elucidation of five new isoflavonoids and their cancer chemopreventive activity” (2004)

Key:
Assay type in all cases: functional
Mus musculus [1] = experiment: Inhibition of DMBA-induced/TPA-promoted carcinogenesis in ICR mouse assessed as number of skin papillomas per mouse at 85 nmol administered 1 hr before TPA treatment measured after 20 weeks
Mus musculus [2] = experiment: Inhibition of DMBA-induced/TPA-promoted carcinogenesis in ICR mouse assessed as mouse bearing papillomas at 85 nmol administered 1 hr before TPA treatment measured after 8 weeks; design: scale not given: the % may be the effect or the level left
Mus musculus [3] = experiment: Inhibition of DMBA-induced/TPA-promoted carcinogenesis in ICR mouse assessed as mouse bearing papillomas at 85 nmol administered 1 hr before TPA treatment measured after 10 weeks; design: scale not given: the % may be the effect or the level left
Mus musculus [4] = experiment: Inhibition of DMBA-induced/TPA-promoted carcinogenesis in ICR mouse assessed as mouse bearing papillomas at 85 nmol administered 1 hr before TPA treatment measured after 20 weeks; design: scale not given: the % may be the effect or the level left
Mus musculus [5] = experiment: Inhibition of DMBA-induced/TPA-promoted carcinogenesis in ICR mouse assessed as number of skin papillomas per mouse at 85 nmol administered 1 hr before TPA treatment measured after 14 weeks

## CC(C)=CCc1c2c(c(O)c3c(=O)c(-c4ccc(O)c(O)c4)coc13)C=CC(C)(C)O2 [AURICULASIN]
Mus musculus [1]
  Activity: 4.9
Mus musculus [2]
  Activity: 13%
Mus musculus [3]
  Activity: 27%
Mus musculus [4]
  Activity: 87%
Mus musculus [5]
  Activity: <3
